The values below come from US10787446B2 (GENENTECH, INC., priority 2015, dated 2020).

This assay has as its target T1, hNav1.7 and the β1 subunit (Homo sapiens, UniProt Q15858).
T1 construct: expressed in transfected cells
In words: Tritiated compound competitive binding to membranes from cells heterologously expressing hNav1.7 and the β1 subunit (LBA). Particulars: competition with 100 pM [3H]compound, 18 h, room temperature; IC50 by 4 parameter logistic model. The method, boiled down: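 Membranes were incubated 18 h at room temperature with 100 pM [3H]-labelled NaV1.7 inhibitor and increasing test compound in 100 mM NaCl, 20 mM Tris HCl, pH 7.4. Bound radioligand was filtered on PEI-soaked GF/C, washed, and counted by scintillation. IC50 from a 4-parameter logistic fit of % inhibition.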

T1 sequence (Q15858 whole entry): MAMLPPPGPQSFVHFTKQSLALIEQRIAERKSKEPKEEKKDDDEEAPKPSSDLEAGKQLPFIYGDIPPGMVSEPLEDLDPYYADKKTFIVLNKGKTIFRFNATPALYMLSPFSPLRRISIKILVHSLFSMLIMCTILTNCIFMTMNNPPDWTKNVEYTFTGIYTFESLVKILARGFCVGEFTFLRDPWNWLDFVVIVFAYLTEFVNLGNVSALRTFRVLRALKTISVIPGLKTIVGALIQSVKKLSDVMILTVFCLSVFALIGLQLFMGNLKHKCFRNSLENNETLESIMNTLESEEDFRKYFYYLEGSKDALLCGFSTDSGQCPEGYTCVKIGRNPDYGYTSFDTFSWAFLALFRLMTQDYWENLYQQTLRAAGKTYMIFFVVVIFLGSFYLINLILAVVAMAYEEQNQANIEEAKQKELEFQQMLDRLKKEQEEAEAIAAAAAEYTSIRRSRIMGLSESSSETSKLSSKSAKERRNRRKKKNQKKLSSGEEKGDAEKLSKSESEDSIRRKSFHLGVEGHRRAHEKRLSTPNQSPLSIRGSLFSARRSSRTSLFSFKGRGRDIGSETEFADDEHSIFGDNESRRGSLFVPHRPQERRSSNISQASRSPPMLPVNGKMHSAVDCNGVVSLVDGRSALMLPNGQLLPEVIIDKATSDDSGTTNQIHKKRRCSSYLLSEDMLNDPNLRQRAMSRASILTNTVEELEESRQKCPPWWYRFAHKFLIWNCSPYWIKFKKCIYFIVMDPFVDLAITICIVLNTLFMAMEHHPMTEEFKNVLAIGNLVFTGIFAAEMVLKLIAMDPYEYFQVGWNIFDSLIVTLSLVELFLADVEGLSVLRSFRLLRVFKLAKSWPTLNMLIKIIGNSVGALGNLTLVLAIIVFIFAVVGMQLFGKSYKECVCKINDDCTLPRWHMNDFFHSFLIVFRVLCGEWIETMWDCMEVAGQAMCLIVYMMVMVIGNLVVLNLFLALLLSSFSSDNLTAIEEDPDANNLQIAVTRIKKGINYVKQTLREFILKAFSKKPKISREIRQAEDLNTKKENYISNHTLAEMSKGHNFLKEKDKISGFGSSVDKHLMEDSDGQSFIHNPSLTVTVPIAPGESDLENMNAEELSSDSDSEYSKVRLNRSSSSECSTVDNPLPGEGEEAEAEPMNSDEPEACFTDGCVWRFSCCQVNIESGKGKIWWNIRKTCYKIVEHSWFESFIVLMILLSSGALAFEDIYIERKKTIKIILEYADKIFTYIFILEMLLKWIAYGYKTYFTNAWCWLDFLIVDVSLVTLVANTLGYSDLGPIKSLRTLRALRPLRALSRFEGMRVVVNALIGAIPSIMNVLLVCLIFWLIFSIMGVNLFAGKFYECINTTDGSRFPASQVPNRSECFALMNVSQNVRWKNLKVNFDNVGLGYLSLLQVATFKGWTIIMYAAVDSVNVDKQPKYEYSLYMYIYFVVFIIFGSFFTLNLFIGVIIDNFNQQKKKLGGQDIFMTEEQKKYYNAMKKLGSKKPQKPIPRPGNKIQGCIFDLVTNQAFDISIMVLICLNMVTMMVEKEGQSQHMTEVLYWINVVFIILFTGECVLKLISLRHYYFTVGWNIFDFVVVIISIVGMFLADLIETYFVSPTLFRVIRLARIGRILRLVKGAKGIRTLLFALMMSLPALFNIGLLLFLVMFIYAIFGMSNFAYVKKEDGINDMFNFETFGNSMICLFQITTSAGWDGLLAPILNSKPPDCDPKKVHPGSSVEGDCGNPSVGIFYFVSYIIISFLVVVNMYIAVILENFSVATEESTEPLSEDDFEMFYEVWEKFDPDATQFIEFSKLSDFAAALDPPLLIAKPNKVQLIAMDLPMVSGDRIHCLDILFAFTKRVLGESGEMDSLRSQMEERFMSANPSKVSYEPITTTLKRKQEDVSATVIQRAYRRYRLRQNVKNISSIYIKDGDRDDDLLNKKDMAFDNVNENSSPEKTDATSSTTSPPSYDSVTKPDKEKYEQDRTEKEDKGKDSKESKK
T1 sequence (Q07699 19-218 partner): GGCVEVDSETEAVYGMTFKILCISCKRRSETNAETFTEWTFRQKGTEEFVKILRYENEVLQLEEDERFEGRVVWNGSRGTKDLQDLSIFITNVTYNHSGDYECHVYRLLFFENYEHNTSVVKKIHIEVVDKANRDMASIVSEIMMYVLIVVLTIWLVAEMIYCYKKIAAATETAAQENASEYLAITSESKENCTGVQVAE

Consider `Cc1cc([C@@H]2C[C@H](C(F)(F)F)CCN2[C@H]2CCOc3cc(S(=O)(=O)Nc4ncns4)ccc32)n(C)n1` [Example 203, (S)-4-((2S,4R)-2-(1,3-dimethyl-1H-pyrazol-5-yl)-4-(trifluoromethyl)piperidin-1-yl)-N-(1,2,4-thiadiazol-5-yl)chroman-7-sulfonamide], for which the “Nav1.7 (LBA)” value came out at 0.00824 µM.

Regarding `O=S(=O)(Nc1ncns1)c1ccc2c(c1)OCC[C@@H]2N1CC[C@@H](C(F)(F)F)C[C@H]1c1ccc(F)c(Cl)c1` [Example 204, (S)-4-((2S,4R)-2-(3-chloro-4-fluorophenyl)-4-(trifluoromethyl)piperidin-1-yl)-N-(1,2,4-thiadiazol-5-yl)chroman-7-sulfonamide], the “Nav1.7 (LBA)” value came out at 0.00398 µM.

Regarding `NC(=O)c1cccc([C@@H]2C[C@H](C(F)(F)F)CCN2[C@H]2CCOc3cc(S(=O)(=O)Nc4ncns4)ccc32)c1` [Example 205, 3-((2S,4R)-1-((S)-7-(N-(1,2,4-thiadiazol-5-yl)sulfamoyl)chroman-4-yl)-4-(trifluoromethyl)piperidin-2-yl)benzamide], the “Nav1.7 (LBA)” value was 0.000907 µM.

As for `Nc1cccc([C@@H]2C[C@H](C(F)(F)F)CCN2[C@H]2CCOc3cc(S(=O)(=O)Nc4nccs4)c(F)cc32)n1` [Example 206, (S)-4-((2S,4R)-2-(6-aminopyridin-2-yl)-4-(trifluoromethyl)piperidin-1-yl)-6-fluoro-N-(thiazol-2-yl)chroman-7-sulfonamide], the “Nav1.7 (LBA)” value is 0.000515 µM.

With `O=S(=O)(Nc1ncns1)c1ccc2c(c1)OCC[C@@H]2NC(CCC(F)(F)F)c1ccccc1` (stereo partly drawn) [Example 207, (4S)—N-(1,2,4-thiadiazol-5-yl)-4-((4,4,4-trifluoro-1-phenylbutyl)amino)chroman-7-sulfonamide], the “Nav1.7 (LBA)” value is 0.039 µM.

As to `O=S(=O)(Nc1nccs1)c1cc2c(cc1F)[C@H](N1CC[C@H](C(F)(F)F)C[C@@H]1c1ccc(F)cc1)CCO2` [Example 209, (R)-6-fluoro-4-((2R,4S)-2-(4-fluorophenyl)-4-(trifluoromethyl)piperidin-1-yl)-N-(thiazol-2-yl)chromane-7-sulfonamide], the “Nav1.7 (LBA)” value was determined as 0.0683 µM.

For the compound `O=S(=O)(Nc1nccs1)c1cc2c(cc1F)[C@H](N1CC[C@@H](C(F)(F)F)C[C@H]1c1ccn[nH]1)CCO2` [Example 210, (R)-4-((2S,4R)-2-(1H-pyrazol-5-yl)-4-(trifluoromethyl)piperidin-1-yl)-6-fluoro-N-(thiazol-2-yl)chromane-7-sulfonamide], the “Nav1.7 (LBA)” value was 0.0375 µM.

On to `O=S(=O)(Nc1nccs1)c1cc2c(cc1F)[C@@H](N1CC[C@H](C(F)(F)F)C[C@@H]1c1ccn[nH]1)CCO2` [Example 212, (S)-4-((2R,4S)-2-(1H-pyrazol-5-yl)-4-(trifluoromethyl)piperidin-1-yl)-6-fluoro-N-(thiazol-2-yl)chromane-7-sulfonamide], for which the “Nav1.7 (LBA)” value is 0.0033 µM.

Turning to `O=S(=O)(Nc1nccs1)c1cc2c(cc1F)[C@H](N1CC[C@H](C(F)(F)F)C[C@@H]1c1ccn[nH]1)CCO2` [Example 213, (R)-4-((2R,4S)-2-(1H-pyrazol-5-yl)-4-(trifluoromethyl)piperidin-1-yl)-6-fluoro-N-(thiazol-2-yl)chromane-7-sulfonamide], the “Nav1.7 (LBA)” value came to 0.0274 µM.

As to `O=S(=O)(Nc1nccs1)c1cc2c(cc1F)[C@H](N1CC[C@@H](C(F)(F)F)C[C@H]1c1ccc(F)cc1)CCO2` [Example 214, (R)-6-fluoro-4-((2S,4R)-2-(4-fluorophenyl)-4-(trifluoromethyl)piperidin-1-yl)-N-(thiazol-2-yl)chromane-7-sulfonamide], the “Nav1.7 (LBA)” value was 0.00144 µM.

Regarding `O=S(=O)(Nc1nccs1)c1cc2c(cc1F)[C@@H](N1CC[C@H](C(F)(F)F)C[C@@H]1c1ccc(F)cc1)CCO2` [Example 215, (S)-6-fluoro-4-((2R,4S)-2-(4-fluorophenyl)-4-(trifluoromethyl)piperidin-1-yl)-N-(thiazol-2-yl)chromane-7-sulfonamide], the “Nav1.7 (LBA)” value amounted to 0.633 µM.

With `CC(C)(C)OC(=O)N1CCN([C@@H]2CCOc3cc(S(=O)(=O)Nc4ncns4)ccc32)[C@H](c2ccc(F)cc2)C1` [Example 216, Tert-butyl (R)-4-((R)-7-(N-(1,2,4-thiadiazol-5-yl)sulfamoyl)chroman-4-yl)-3-(4-fluorophenyl)piperazine-1-carboxylate], the “Nav1.7 (LBA)” value came out at 0.213 µM.

Consider `CC(C)(C)OC(=O)N1CCN([C@H]2CCOc3cc(S(=O)(=O)Nc4ncns4)ccc32)[C@H](c2ccc(F)cc2)C1` [Example 217, tert-butyl (R)-4-((S)-7-(N-(1,2,4-thiadiazol-5-yl)sulfamoyl)chroman-4-yl)-3-(4-fluorophenyl)piperazine-1-carboxylate], for which the “Nav1.7 (LBA)” value is 0.0183 µM.

Consider `O=S(=O)(Nc1ncns1)c1ccc2c(c1)OCC[C@@H]2N1CCNC[C@H]1c1ccc(F)cc1` [Example 218, (S)-4-((R)-2-(4-fluorophenyl)piperazin-1-yl)-N-(1,2,4-thiadiazol-5-yl)chromane-7-sulfonamide], for which the “Nav1.7 (LBA)” value is 0.0941 µM.

Consider `O=S(=O)(Nc1ncns1)c1ccc2c(c1)OCC[C@@H]2N1CCN(CC(F)(F)F)C[C@H]1c1ccc(F)cc1` [Example 219, (S)-4-((R)-2-(4-fluorophenyl)-4-(2,2,2-trifluoroethyl)piperazin-1-yl)-N-(1,2,4-thiadiazol-5-yl)chromane-7-sulfonamide], for which the “Nav1.7 (LBA)” value amounted to 0.00778 µM.

For the compound `O=S(=O)(Nc1ncns1)c1ccc2c(c1)OCC[C@H]2N1CCN(CC(F)(F)F)C[C@H]1c1ccc(F)cc1` [Example 220, (R)-4-((R)-2-(4-fluorophenyl)-4-(2,2,2-trifluoroethyl)piperazin-1-yl)-N-(1,2,4-thiadiazol-5-yl)chromane-7-sulfonamide], the “Nav1.7 (LBA)” value was 0.0494 µM.

Take `CN1CCN([C@H]2CCOc3cc(S(=O)(=O)Nc4ncns4)ccc32)[C@H](c2ccc(F)cc2)C1` [Example 221, (S)-4-((R)-2-(4-fluorophenyl)-4-methylpiperazin-1-yl)-N-(1,2,4-thiadiazol-5-yl)chromane-7-sulfonamide]: the “Nav1.7 (LBA)” value worked out at 0.223 µM.

For the compound `O=S(=O)(Nc1ncns1)c1ccc2c(c1)OCC[C@@H]2N1CCN(CC(F)F)C[C@H]1c1ccc(F)cc1` [Example 222, (S)-4-((R)-4-(2,2-difluoroethyl)-2-(4-fluorophenyl)piperazin-1-yl)-N-(1,2,4-thiadiazol-5-yl)chromane-7-sulfonamide], the “Nav1.7 (LBA)” value was 0.0262 µM.

In the case of `O=S(=O)(Nc1ncns1)c1ccc2c(c1)OCC[C@@H]2N1CCN(CCF)C[C@H]1c1ccc(F)cc1` [Example 223, (S)-4-((R)-4-(2-fluoroethyl)-2-(4-fluorophenyl)piperazin-1-yl)-N-(1,2,4-thiadiazol-5-yl)chromane-7-sulfonamide], the “Nav1.7 (LBA)” value was 0.125 µM.

For the compound `CCN1CCN([C@H]2CCOc3cc(S(=O)(=O)Nc4ncns4)ccc32)[C@H](c2ccc(F)cc2)C1` [Example 224, (S)-4-((R)-4-ethyl-2-(4-fluorophenyl)piperazin-1-yl)-N-(1,2,4-thiadiazol-5-yl)chromane-7-sulfonamide], the “Nav1.7 (LBA)” value is 0.174 µM.

Consider `O=S(=O)(Nc1ncns1)c1ccc2c(c1)OCC[C@@H]2N1CCN(S(=O)(=O)C(F)(F)F)C[C@H]1c1ccc(F)cc1` [Example 225, (S)-4-((R)-2-(4-fluorophenyl)-4-((trifluoromethyl)sulfonyl)piperazin-1-yl)-N-(1,2,4-thiadiazol-5-yl)chromane-7-sulfonamide], for which the “Nav1.7 (LBA)” value stood at 0.0057 µM.

`CS(=O)(=O)N1CCN([C@H]2CCOc3cc(S(=O)(=O)Nc4ncns4)ccc32)[C@H](c2ccc(F)cc2)C1` [Example 226, (S)-4-((R)-2-(4-fluorophenyl)-4-(methylsulfonyl)piperazin-1-yl)-N-(1,2,4-thiadiazol-5-yl)chromane-7-sulfonamide]: the “Nav1.7 (LBA)” value came out at 0.0305 µM.

With `O=S(=O)(Nc1nncs1)c1cc2c(cc1F)[C@@H](N1CC[C@@H](C(F)(F)F)C[C@H]1c1ccc(F)cc1)CCO2` [Example 231, (S)-6-fluoro-4-((2S,4R)-2-(4-fluorophenyl)-4-(trifluoromethyl)piperidin-1-yl)-N-(1,3,4-thiadiazol-2-yl)chroman-7-sulfonamide], the “Nav1.7 (LBA)” value stood at 0.00495 µM.
